# Results reported in patent US20220401385A1, “Combination Therapy Based on PD-1 Signaling Inhibitors” (Kyoto University, priority 2019, published 2022).
# Test system: MC38 cells
# Experiment: MC38 mouse therapy model, tumor growth and survival
# Format: in vivo, C57BL/6 mice
# Protocol: FIG. 1-1 a) CD8^+ T cells or CD3^+ T cells were isolated from mice, and 2×10^5 cells were stimulated with CD3/CD28 beads in 96-well U plates. After 24 hours and 48 hours, cells and culture supernatant were collected, followed by measurement of spermidine (SPD) concentration by mass spectrometry. […] Ten days after inoculation, PD-L1 antibody (2 mg/kg), PD-L1 antibody+SPD (2 mg/kg), or SPD alone was administered. Subsequently, PD-L1 antibody was administered 4 times at a regular interval of 5 days, and SPD was administered 8 times at a regular interval of 3 days. Tumor growth curve and survival curve are shown. c) Draining lymph nodes (DLNs) of mice were isolated 13 days after tumor inoculation, and stained with antibodies to CD8, CD44 and CD62L. The number of cells in draining lymph node (cells/DLN) in each treatment group is shown at the left side. After being gated, CD8^+ T cells were fractionated with CD44 and CD62L into P1 to P4 cell populations. Percentages and cell numbers of P1 to P4 in each treatment group are shown. d) Tumor was isolated 13 days after tumor inoculation and treated with collagenase. Percentages and numbers per mg tumor of tumor-infiltrating CD8^+ CD45.2^+ cells are shown. For statistical analysis, ANOVA was used. * p<0.05, ** p<0.01, *** p<0.001, **** p<0.0001.
# FIG. 8 MC38 cells (5×10^5) were intradermally inoculated into C57BL/6 mice. Ten days after inoculation, PD-L1 antibody (2 mg/kg), PD-L1 antibody+SPD (2 mg/kg) or PD-L1 antibody+SPM (6 mg/kg) was administered. Subsequently, […] was administered 4 times at a regular interval of 5 days, whereas SPD and SPM were administered 8 times at a regular interval of 3 days. Tumor growth curve is shown.
# MC38 cells (5×10^5) were intradermally injected on the right flank. Ten days after inoculation, PD-L1 antibody (1-111A; prepared by and stored at the Department of Immunology and Genomic Medicine, Graduate School of Medicine, Kyoto University) (Immunology Letters 84 (2002) 57-62) (2 mg/kg), PD-L1 antibody+SPD (2 mg/kg) or SPD alone was administered to mice. Subsequently, PD-L1 antibody was administered 4 times at a regular interval of 5 days, and SPD was administered 8 times at a regular interval of 3 days. Tumors were measured on every alternate day, and tumor volumes were calculated using the formula for typical ellipsoid, π×(length×breadth×height/6).
smiles,measurement,setting,value
"NCCCNCCCCNCCCN [SPM, spermine]",effectiveness compared with SPD in enhancing the antitumor effect of PD-1 inhibitory antibody,"SPM 6 mg/kg versus SPD 2 mg/kg, each + PD-L1 antibody, MC38",slightly less effective than SPD
same,enhancement of the antitumor effect of PD-1 inhibitory antibody,"SPM (6 mg/kg) + PD-L1 antibody (2 mg/kg), MC38 in C57BL/6 mice",induced to some extent an enhancement
